Positions of bridges follow the written chain, without caps; N, C: chain ends. Residues, ends and D or L forms follow the SMILES beside them.
How the values were obtained:
[1] = 100% human male AB serum (Sigma); settings: 37 °C, up to 24 h
Abl kinase = Abl kinase (Homo sapiens, UniProt P00519); assay: BacKin assay, inhibition of phosphorylation of abltide displayed on E. coli; format: biochemical; settings: 32 μM peptide, Abl kinase 0.2 U/mL, 37 °C, 30 min
Serum stability assay = settings: for remaining at 24 h, 30 μM: male, human, serum; for stability in human serum (in words; comparison to MCoTI-II at 24 h): 100% human serum, 37 °C, one-way ANOVA, three replicates
Experimental: All peptides were tested at a final concentration of 30 μM in 100% human serum. […] Reactions were stopped at the stipulated times and the serum proteins in each sample were denatured and precipitated, followed by centrifugation at 17,000 g for 10 min to separate the serum proteins from peptide samples. […] The elution time for each peptide was determined by the PBS control from 0 time point. The percentage of peptide remaining at each time point was calculated using the height of the serum-treated peptide peak from time 0 as 100% recovery.

HeLa cells = system: HeLa cells
Experimental: Since BCR-ABL localizes predominantly in the cytoplasm, it is important to evaluate whether the designed peptides can be internalized into cells.
Human cervical cancer cells (HeLa) were seeded in 175-cm^2 tissue culture flasks (Falcon), in Dulbecco’s Modified Eagle’s Medium (DMEM) supplemented with 10% fetal bovine serum, 100 U/mL penicillin and […] streptomycin, until 80% confluent.
Cytotoxicity of the MTAbl peptides towards HeLa cells was evaluated before the cell internalization assay. The mammalian cell cytotoxicity assay was conducted using a method described earlier. HeLa cells were seeded the day before the assay in 96-well tissue culture-treated plates (2.5 × 10^3 cells/well). […] Peptide solutions were diluted 10-fold with serum-free medium and incubated with cells in triplicates for 2 h. […] Following incubation the peptide solutions were removed and aliquots of 10 μL of 0.02% (w/v) sterile resazurin (resazurin sodium salt, Sigma) were added to each well containing 100 μL of fresh medium. […] The absorbance of the plates was measured on a plate reader at 540 and 620 nm.

Chain of Abl kinase (P00519 whole entry): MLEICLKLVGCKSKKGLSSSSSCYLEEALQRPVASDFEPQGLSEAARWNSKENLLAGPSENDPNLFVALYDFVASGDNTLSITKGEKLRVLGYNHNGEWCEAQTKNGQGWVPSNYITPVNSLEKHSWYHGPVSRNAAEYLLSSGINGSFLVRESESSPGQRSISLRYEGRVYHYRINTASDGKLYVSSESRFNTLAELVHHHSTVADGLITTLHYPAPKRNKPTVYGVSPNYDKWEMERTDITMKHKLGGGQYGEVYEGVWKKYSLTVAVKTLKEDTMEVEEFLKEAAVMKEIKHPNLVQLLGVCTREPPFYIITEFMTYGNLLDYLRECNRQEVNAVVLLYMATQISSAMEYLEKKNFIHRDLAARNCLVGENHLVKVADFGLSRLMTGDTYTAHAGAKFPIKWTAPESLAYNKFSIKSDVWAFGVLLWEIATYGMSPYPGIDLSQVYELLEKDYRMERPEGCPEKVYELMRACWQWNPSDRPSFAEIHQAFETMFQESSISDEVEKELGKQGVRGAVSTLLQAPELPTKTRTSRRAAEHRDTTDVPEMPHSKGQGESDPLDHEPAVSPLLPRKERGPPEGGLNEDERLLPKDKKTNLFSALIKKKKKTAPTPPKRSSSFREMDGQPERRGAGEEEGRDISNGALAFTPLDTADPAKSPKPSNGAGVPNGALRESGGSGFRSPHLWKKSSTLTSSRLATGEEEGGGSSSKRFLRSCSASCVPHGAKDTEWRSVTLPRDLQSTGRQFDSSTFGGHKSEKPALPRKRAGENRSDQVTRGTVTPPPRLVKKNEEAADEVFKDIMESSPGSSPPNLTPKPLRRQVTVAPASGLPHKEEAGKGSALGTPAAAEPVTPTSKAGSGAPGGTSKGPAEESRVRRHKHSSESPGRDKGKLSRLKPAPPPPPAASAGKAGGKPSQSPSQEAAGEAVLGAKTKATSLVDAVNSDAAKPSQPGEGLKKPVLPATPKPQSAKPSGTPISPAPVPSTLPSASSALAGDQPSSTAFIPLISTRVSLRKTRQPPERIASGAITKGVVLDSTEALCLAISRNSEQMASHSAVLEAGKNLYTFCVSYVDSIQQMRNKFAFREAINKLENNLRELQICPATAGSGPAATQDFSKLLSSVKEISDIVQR

Molecule | fragment found [1] | percentage of Abl kinase inhibition (Abl kinase) | remaining at 24 h, 30 μM (Serum stability assay) | concentration up to which no cytotoxicity towards HeLa cells (HeLa cells) | stability in human serum (in words; comparison to MCoTI-II at 24 h) (Serum stability assay)
CPKILKKCRRDSDCPGACICRGNGYCGEAIY*AAPFAR | MTAbl06 (i.e. dephosphorylated MTAbl12) |  |  |  | 
CC[C@H](C)[C@@H]1NC(=O)[C@H](C)NC(=O)[C@H](CCC(=O)O)NC(=O)CNC(=O)[C@@H]2CSSC[C@@H]3NC(=O)[C@H](CC(=O)O)NC(=O)[C@H](CO)NC(=O)[C@H](CC(=O)O)NC(=O)[C@H](CCCNC(=N)N)NC(=O)[C@H](CCCNC(=N)N)NC(=O)[C@@H]4CSSC[C@H](NC(=O)[C@H]([C@@H](C)CC)NC(=O)[C@H](CSSC[C@H](NC(=O)[C@H](CCCNC(=N)N)NC(=O)[C@H](C)NC(=O)[C@H](Cc5ccccc5)NC(=O)[C@@H]5CCCN5C(=O)[C@H](C)NC(=O)[C@H](C)NC(=O)[C@H](Cc5ccc(O)cc5)NC1=O)C(=O)N1CCC[C@H]1C(=O)N[C@@H](CCCCN)C(=O)N[C@@H]([C@@H](C)CC)C(=O)N[C@@H](CC(C)C)C(=O)N[C@@H](CCCCN)C(=O)N[C@@H](CCCCN)C(=O)N4)NC(=O)[C@H](C)NC(=O)CNC(=O)[C@@H]1CCCN1C3=O)C(=O)N[C@@H](CCCNC(=N)N)C(=O)NCC(=O)N[C@@H](CC(N)=O)C(=O)NCC(=O)N[C@@H](Cc1ccc(O)cc1)C(=O)N2 [MTAbl06] (cyclo(AAPFARCPKILKKCRRDSDCPGACICRGNGYCGEAIY); disulfide 7-24, 14-26, 20-32) |  | ~ 90% | > 75% | > 64 µM | 
CC[C@H](C)[C@@H]1NC(=O)[C@H](C)NC(=O)[C@H](CCC(=O)O)NC(=O)CNC(=O)[C@@H]2CSSC[C@@H]3NC(=O)[C@H](CC(=O)O)NC(=O)[C@H](CO)NC(=O)[C@H](CC(=O)O)NC(=O)[C@H](CCCNC(=N)N)NC(=O)[C@H](CCCNC(=N)N)NC(=O)[C@@H]4CSSC[C@H](NC(=O)[C@H]([C@@H](C)CC)NC(=O)[C@H](CSSC[C@H](NC(=O)[C@H](CCCNC(=N)N)NC(=O)[C@H](C)NC(=O)[C@H](Cc5ccccc5)NC(=O)[C@@H]5CCCN5C(=O)[C@H](C)NC(=O)[C@H](C)NC(=O)[C@H](Cc5ccc(O)cc5)NC1=O)C(=O)N[C@@H](CCC(=O)O)C(=O)N[C@@H](C)C(=O)N[C@@H]([C@@H](C)CC)C(=O)N[C@@H](Cc1ccc(O)cc1)C(=O)N[C@@H](C)C(=O)N[C@@H](C)C(=O)N1CCC[C@H]1C(=O)N[C@@H](CCCCN)C(=O)N4)NC(=O)[C@H](C)NC(=O)CNC(=O)[C@@H]1CCCN1C3=O)C(=O)N[C@@H](CCCNC(=N)N)C(=O)NCC(=O)N[C@@H](CC(N)=O)C(=O)NCC(=O)N[C@@H](Cc1ccc(O)cc1)C(=O)N2 [MTAbl13] (cyclo(AAPFARCEAIYAAPKCRRDSDCPGACICRGNGYCGEAIY); disulfide 7-26, 16-28, 22-34) |  |  | > 75% | > 64 µM | statistically more stable than MCoTI-II
CC[C@H](C)[C@@H]1NC(=O)[C@H](C)NC(=O)[C@H](CCC(=O)O)NC(=O)[C@@H]2CSSC[C@@H]3NC(=O)[C@H](C)NC(=O)CNC(=O)[C@@H]4CCCN4C(=O)[C@@H]4CSSC[C@H](NC(=O)[C@H](Cc5ccc(O)cc5)NC(=O)CNC(=O)[C@H](CC(N)=O)NC(=O)CNC(=O)[C@H](CCCNC(=N)N)NC(=O)[C@H](CSSC[C@H](NC(=O)[C@H](CCCCN)NC(=O)[C@@H]5CCCN5C(=O)[C@H](C)NC(=O)[C@H](C)NC(=O)[C@H](Cc5ccc(O)cc5)NC1=O)C(=O)N[C@@H](CCCNC(=N)N)C(=O)N[C@@H](CCCNC(=N)N)C(=O)N[C@@H](CC(=O)O)C(=O)N[C@@H](CO)C(=O)N[C@@H](CC(=O)O)C(=O)N4)NC(=O)[C@H]([C@@H](C)CC)NC3=O)C(=O)NCC(=O)N[C@@H](CO)C(=O)NCC(=O)N[C@@H](CO)C(=O)N[C@@H](CC(=O)O)C(=O)NCC(=O)NCC(=O)N[C@@H](C(C)C)C(=O)N2 [MTAbl09] (cyclo(AAPKCRRDSDCPGACICRGNGYCGSGSDGGVCEAIY); disulfide 5-17, 11-23, 15-32) |  |  | > 75% | > 64 µM | statistically more stable than MCoTI-II
CC[C@H](C)[C@@H]1NC(=O)[C@H](C)NC(=O)[C@H](CCC(=O)O)NC(=O)CNC(=O)[C@@H]2CSSC[C@@H]3NC(=O)[C@H](CC(=O)O)NC(=O)[C@H](CO)NC(=O)[C@H](CC(=O)O)NC(=O)[C@H](CCCNC(=N)N)NC(=O)[C@H](CCCNC(=N)N)NC(=O)[C@@H]4CSSC[C@H](NC(=O)[C@H]([C@@H](C)CC)NC(=O)[C@H](CSSC[C@H](NC(=O)[C@H](CCCNC(=N)N)NC(=O)[C@H](CCCNC(=N)N)NC(=O)[C@H](CCCNC(=N)N)NC(=O)[C@H](C)NC(=O)[C@H](Cc5ccccc5)NC(=O)[C@@H]5CCCN5C(=O)[C@H](C)NC(=O)[C@H](C)NC(=O)[C@H](Cc5ccc(O)cc5)NC1=O)C(=O)N1CCC[C@H]1C(=O)N[C@@H](CCCCN)C(=O)N[C@@H]([C@@H](C)CC)C(=O)N[C@@H](CC(C)C)C(=O)N[C@@H](CCCCN)C(=O)N[C@@H](CCCCN)C(=O)N4)NC(=O)[C@H](C)NC(=O)CNC(=O)[C@@H]1CCCN1C3=O)C(=O)N[C@@H](CCCNC(=N)N)C(=O)NCC(=O)N[C@@H](CC(N)=O)C(=O)NCC(=O)N[C@@H](Cc1ccc(O)cc1)C(=O)N2 [MTAbl07] (cyclo(AAPFARRRCPKILKKCRRDSDCPGACICRGNGYCGEAIY); disulfide 9-26, 16-28, 22-34) |  |  | > 75% | > 64 µM | as stable as MCoTI-II

Reference: article PMC4532999 (Scientific Reports, 2015)
